Results from patent US6756382B2, “Amide substituted imidazoquinolines” (3M Innovative Properties Company, priority 1999, dated 2004).

Tests used:
[1] = system: tumor necrosis factor (α); assay: Cytokine induction in human cells: tumor necrosis factor (α) secreted by PBMCs, ELISA; format: cell-based; details: PBMC, incubated 18 to 24 hours, TNF determined by ELISA, read-out: Lowest Effective Concentration (μM) Tumor Necrosis Factor
How it was run: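 Human donor PBMCs at final 1.5-2×10^6 cells/mL in RPMI with 10% FBS incubated 18 to 24 h at 37° C. with serially diluted compound, DMSO at most 1% final. Supernatant TNF-α measured by ELISA; value is the lowest concentration inducing TNF.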

interferon (α) = assay: Cytokine induction in human cells: interferon secreted by PBMCs, ELISA; format: cell-based; details: PBMC, incubated 18 to 24 hours, interferon determined by ELISA, read-out: Lowest Effective Concentration (μM) Interferon
How it was run: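 Human donor PBMCs at 1.5-2×10^6 cells/mL final in RPMI with 10% FBS, exposed to serially diluted compound (≤1% DMSO) for 18–24 h at 37 °C, 5% CO2. Supernatant interferon (α) measured by ELISA; value is lowest concentration inducing interferon.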

SMILES	melting point	minimal effective concentration [1] [µM]	minimal effective concentration (interferon (α)) [µM]
CCCCc1nc2c(N)nc3ccccc3c2n1CCCCCCCCNC(=O)c1ccccc1 [Example 186, N-[8-(4-amino-2-butyl-1H-imidazo[4,5-c]quinolin-1-yl)octyl]benzamide]	149.5 to 151.3 °C	0.12	0.04
CCCCc1nc2c(N)nc3ccccc3c2n1CCCNC(=O)c1ccccc1 [Example 189, N-[3-(4-amino-2-butyl-1H-imidazo[4,5-c]quinolin-1-yl)propyl]benzamide]	189.4 to 190 °C	0.12	0.04
Nc1nc2ccccc2c2c1ncn2CCNC(=O)CCCCC1SCC2NC(=O)NC21 (stereo not drawn) [Example 27, N^1-[2-(4-Amino-1H-imidazo[4,5-c]quinolin-1-yl)ethyl]-5-(2-oxoperhydrothieno[3,4-d]imidazol-4-yl)pentanamide]	169 °C	> 30	> 30
CCCCc1nc2c(N)nc3ccccc3c2n1CCNC(=O)CCCCC1SCC2NC(=N)NC21 (stereo not drawn) [Example 26, N^1-[2-(4-Amino-2-butyl-1H-imidazo[4,5-c]quinolin-1-yl)ethyl]-5-(2-iminoperhydrothieno[3,4-d]imidazol-4-yl)pentanamide]	95 to 96 °C	10	0.37
Nc1nc2ccccc2c2c1ncn2CCCCNC(=O)c1ccc(N2CCOCC2)nc1 [Example 12, N^3-[4-(4-Amino-1H-imidazo[4,5-c]quinolin-1-yl)butyl]-6-morpholinonicotinamide]	160 to 170 °C (dec.)	> 30	3.33
COCCc1nc2c(N)nc3ccccc3c2n1CCCNC(=O)c1ccccc1 [Example 196, N-{3-[4-amino-2-(2-methoxyethyl)-1H-imidazo[4,5-c]quinolin-1-yl]propyl}benzamide]	183 to 186 °C	0.37	0.01
Cc1nc2c(N)nc3ccccc3c2n1CCCNC(=O)c1ccccc1 [Example 22, N^1-[3-(4-Amino-2-methyl-1H-imidazo[4,5-c]quinolin-1-yl)propyl]benzamide]	230 to 231.4 °C	10	0.37
CCCCc1nc2c(N)nc3ccccc3c2n1CCCCNC(=O)CCCCC1SCC2NC(=O)NC21 (stereo not drawn) [Example 24, N^1-[4-(4-Amino-2-butyl-1H-imidazo[4,5-c]quinolin-1-yl)butyl]-5-(2-oxoperhydrothieno[3,4-d]imidazol-4-yl)pentanamide]	214 to 215 °C	3.33	0.12
Nc1nc2ccccc2c2c1ncn2CCCCNC(=O)CCCCC1SCC2NC(=O)NC21 (stereo not drawn) [Example 25, N^1-[4-(4-Amino-1H-imidazo[4,5-c]quinolin-1-yl)butyl]-5-(2-oxoperhydrothieno[3,4-d]imidazol-4-yl)pentanamide]	104 to 106 °C	> 30	3.33
Nc1nc2ccccc2c2c1ncn2CCCCNC(=O)CCCCOc1ccc2[nH]c(=O)[nH]c2c1 [Example 19, N-[4-Amino-1H-imidazo[4,5-c]quinolin-1-yl]butyl-5-[(2-oxo-2,3-dihydro-1H-benzo[d]imidazol-5-yl)oxy]pentamide]	150 to 157 °C	> 30	10

Further lines, with some results ahead:

melting point	SMILES	minimal effective concentration [1] [µM]	minimal effective concentration (interferon (α)) [µM]
91 to 93 °C	Nc1nc2ccccc2c2c1ncn2CCCCNC(=O)c1cccc2cccnc12 [Example 45, N^8-[4-(4-Amino-1H-imidazo[4,5-c]quinolin-1-yl)butyl]-8-quinolinecarboxamide]	> 30	3.33
215.4 °C (dec.)	Nc1nc2ccccc2c2c1ncn2CCCCNC(=O)c1ccc(-c2ccccc2)cc1 [Example 34, N^1-[4-(4-Amino-1H-imidazo[4,5-c]quinolin-1-yl)butyl]-4-phenylbenzamide]	3.33	> 30
122 to 127 °C	Nc1nc2ccccc2c2c1ncn2CCCCNC(=O)c1ccc2ncccc2c1 [Example 21, N^6-[4-(4-Amino-1H-imidazo[4,5-c]quinolin-1-yl)butyl]-6-quinolinecarboxamide]	1.11	0.12
85 to 87.5 °C	CC(Oc1ccccc1)C(=O)NCCCCn1cnc2c(N)nc3ccccc3c21 (stereo not drawn) [Example 41, N^1-[4-(4-Amino-1H-imidazo[4,5-c]quinolin-1-yl)butyl]-2-phenoxypropanamide]	> 30	1.11
61.5 °C (dec.)	Nc1nc2ccccc2c2c1ncn2CCCCNC(=O)COc1ccccc1 [Example 35, N^1-[4-(4-Amino-1H-imidazo[4,5-c]quinolin-1-yl)butyl]-2-phenoxyacetamide]	> 30	1.11
103 to 105 °C	Nc1nc2ccccc2c2c1ncn2CCCCNC(=O)c1cccc(C(=O)c2ccccc2)c1 [Example 15, N^1-[4-(4-Amino-1H-imidazo[4,5-c]quinolin-1-yl)butyl]-3-benzoylbenzamide]	> 30	3.33
210 to 212 °C	Nc1nc2ccccc2c2c1ncn2CCCCNC(=O)c1ccccc1 [Example 1, N^1-[4-(4-Amino-1H-imidazo[4,5-c]quinolin-1-yl)butyl]benzamide]	10	0.37
254 to 256 °C	Nc1nc2ccccc2c2c1ncn2CCNC(=O)CCc1ccccc1 [Example 17, N^1-[2-(4-Amino-1H-imidazo[4,5-c]quinolin-1-yl)ethyl]-3-phenylpropanamide]	10	3.33
219 °C (dec.)	CCOc1ccc2ccccc2c1C(=O)NCCCCn1cnc2c(N)nc3ccccc3c21 [Example 31, N^1-[4-(4-Amino-1H-imidazo[4,5-c]quinolin-1-yl)butyl]-2-ethoxy-1-naphthamide]	> 30	1.11
77 °C	Nc1nc2ccccc2c2c1ncn2CCCCNC(=O)[C@H]1C[C@@H]1c1ccccc1 (relative stereo) [Example 37, N^1-[4-(4-Amino-1H-imidazo[4,5-c]quinolin-1-yl)butyl]-(trans)-2-phenylcyclopropane-1-carboxamide]	> 30	0.37
146 to 155 °C	Nc1nc2ccccc2c2c1ncn2CCCCCCNC(=O)c1ccccc1 [Example 23, N^1-[6-(4-Amino-1H-imidazo[4,5-c]quinolin-1-yl)hexyl]benzamide]	> 30	1.11
222.8 to 225.3 °C	N#Cc1ccc(C(=O)NCCCCn2cnc3c(N)nc4ccccc4c32)cc1 [Example 32, N^1-[4-(4-Amino-1H-imidazo[4,5-c]quinolin-1-yl)butyl]-4-cyanobenzamide]	> 30	3.33
